The record followed here is ChEMBL document CHEMBL2034890, “Polyhydroxylated macrolides from Seimatosporium discosioides and their effects on the activation of peroxisome proliferator-activated receptor gamma” (J Nat Prod, 2012).

One may read the pEC50 as the negative decadic logarithm of the EC50, by convention in mol/L.

What all share (assay type): functional, cell-based
The target of experiment [1] is T1, Peroxisome proliferator-activated receptor gamma (Homo sapiens) (UniProt P37231).
T1 sequence (whole entry): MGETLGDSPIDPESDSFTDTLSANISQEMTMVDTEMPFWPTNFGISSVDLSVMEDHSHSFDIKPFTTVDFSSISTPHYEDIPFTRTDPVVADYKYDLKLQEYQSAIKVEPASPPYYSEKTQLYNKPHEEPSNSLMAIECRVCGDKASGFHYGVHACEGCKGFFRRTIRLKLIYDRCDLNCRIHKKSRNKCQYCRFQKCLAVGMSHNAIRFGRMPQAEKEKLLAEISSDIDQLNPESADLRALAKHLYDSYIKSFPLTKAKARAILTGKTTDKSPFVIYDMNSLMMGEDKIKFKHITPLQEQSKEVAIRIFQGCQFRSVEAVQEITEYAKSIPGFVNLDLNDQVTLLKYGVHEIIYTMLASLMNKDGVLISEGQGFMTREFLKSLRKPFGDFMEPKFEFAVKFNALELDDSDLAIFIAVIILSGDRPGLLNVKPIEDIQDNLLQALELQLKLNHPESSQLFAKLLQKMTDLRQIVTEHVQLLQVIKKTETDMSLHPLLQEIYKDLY
Kind of experiment: Agonist activity at PPARgamma in human HepG2 cells assessed as downregulation of phosphoenolpyruvate carboxykinase mRNA at 0.5 to 12.5 uM by RT-PCR analysis.

Experiment [2] addresses T1, Peroxisome proliferator-activated receptor gamma (Homo sapiens). In words: Agonist activity at PPARgamma in human HepG2 cells assessed as change in stearoyl CoA desaturase 1 mRNA at 0.5 to 12.5 uM by RT-PCR analysis.
The target is the same in experiment [3]. In words: Agonist activity at PPARgamma in human HepG2 cells assessed as up-regulation of PPARgamma mRNA expression by RT-PCR analysis.
The target in experiment [4] is T2, Peroxisome proliferator-activated receptor gamma (Homo sapiens, UniProt P37231).
T2 sequence (P37231 whole entry): T1 sequence (whole entry)
Kind of experiment: (§1) Agonist activity at human recombinant PPARgamma expressed in CHO cells cotransfected with pGL3-PPRE3-TK-luc reporter assessed as beta-galactosidase activity at after 24 hrs by luciferase based transactivation assay.

For experiment [5], the target named is T3, Peroxisome proliferator-activated receptor delta (Homo sapiens) (UniProt Q03181).
T3 sequence (whole entry): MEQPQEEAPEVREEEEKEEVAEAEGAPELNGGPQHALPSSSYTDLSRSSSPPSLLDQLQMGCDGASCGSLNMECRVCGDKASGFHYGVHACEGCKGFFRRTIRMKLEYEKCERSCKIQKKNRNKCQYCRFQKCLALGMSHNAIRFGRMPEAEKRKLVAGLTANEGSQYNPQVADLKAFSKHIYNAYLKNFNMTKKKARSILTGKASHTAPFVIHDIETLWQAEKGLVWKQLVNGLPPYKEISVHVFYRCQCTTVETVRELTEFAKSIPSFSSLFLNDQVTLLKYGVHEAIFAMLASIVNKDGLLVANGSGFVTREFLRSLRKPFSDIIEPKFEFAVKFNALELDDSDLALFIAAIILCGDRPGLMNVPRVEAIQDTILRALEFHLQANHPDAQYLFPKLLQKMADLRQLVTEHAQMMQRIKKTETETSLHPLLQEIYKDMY
In words: Agonist activity at human recombinant PPARbeta expressed in CHO cells cotransfected with pGL3-PPRE3-TK-luc reporter assessed as beta-galactosidase activity at 20 uM after 24 hrs by luciferase based transactivation assay.

Experiment [6] deals with T1, Peroxisome proliferator-activated receptor gamma (Homo sapiens). Kind of experiment: Agonist activity at PPARgamma in human HepG2 cells assessed as downregulation of glucose-6-phosphatase mRNA at 0.5 to 12.5 uM by RT-PCR analysis.
Experiment [7] has as its target T4, Peroxisome proliferator-activated receptor alpha (Homo sapiens) (UniProt Q07869).
T4 sequence (whole entry): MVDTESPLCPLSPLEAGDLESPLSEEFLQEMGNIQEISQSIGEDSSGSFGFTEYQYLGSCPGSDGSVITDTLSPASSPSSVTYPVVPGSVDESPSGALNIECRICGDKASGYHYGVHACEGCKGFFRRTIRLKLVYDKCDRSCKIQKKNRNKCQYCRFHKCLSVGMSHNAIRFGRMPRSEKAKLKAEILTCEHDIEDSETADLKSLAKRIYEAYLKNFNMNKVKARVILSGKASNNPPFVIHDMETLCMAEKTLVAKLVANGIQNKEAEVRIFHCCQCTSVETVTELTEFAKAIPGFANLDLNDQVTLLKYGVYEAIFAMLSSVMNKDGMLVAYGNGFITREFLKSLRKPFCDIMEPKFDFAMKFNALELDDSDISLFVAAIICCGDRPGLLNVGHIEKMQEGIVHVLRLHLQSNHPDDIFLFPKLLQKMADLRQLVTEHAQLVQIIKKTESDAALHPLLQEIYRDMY
Kind of experiment: Agonist activity at human recombinant PPARalpha expressed in CHO cells cotransfected with pGL3-PPRE3-TK-luc reporter assessed as beta-galactosidase activity at 20 uM after 24 hrs by luciferase based transactivation assay.

Experiment [8] concerns the target T1, Peroxisome proliferator-activated receptor gamma (Homo sapiens). In words: Agonist activity at PPARgamma in human HepG2 cells assessed as up-regulation of PPARgamma mRNA at 0.5 to 12.5 uM by RT-PCR analysis relative to control.
Experiment [9] shares this target. The description is as §1.

Each structure is given as a SMILES string. pEC50: −log10 of the molar value. The source made the active and inactive calls. No cut-off for these calls is given here.

Consider `CCCCCCCCC[C@H]1C[C@@H](O)[C@H](O)/C=C/[C@H](O)CC(=O)O1` [SEIMATOPOLIDE A], for which the outcome in [1] and in experiment [6] was Active. Moreover, the result in [2], in [5] and in experiment [7] was inactive. Further, the Activity entry in experiment [3] was “Dose-dependent effect”. In addition, the pEC50 in [4] was 5.94. In addition, in [8], the fold change (FC) was found to be 2.
As to `COc1cc(O)c2c(c1)[C@@H](O)[C@@]1(O)COC[C@H]1C2=O`, the outcome in [9], in experiment [5] and in [7] was inactive.
`COc1cc(O)c2c(c1)[C@@H](O)[C@@]13CO[C@@H](O)[C@@]1(O3)C2=O`: the outcome in experiment [9], in [5] and in experiment [7] was inactive.
For the compound `COc1cc(O)c2c(c1)C(=O)c1cocc1C2=O`, the outcome in [9], in [5] and in experiment [7] was inactive.
`CCCCCCCCC[C@H]1CC[C@H](O)/C=C/[C@H](O)CC(=O)O1` [SEIMATOPOLIDE B]: the pEC50 in experiment [4] was 4.96. The result in experiment [5] and in experiment [7] was inactive.
